Test [1] concerns the target T1, human α1A adrenergic receptor (Homo sapiens, UniProt P35348).
T1 construct: host or cells: LM(tk-) cells, line L-α1C
T1 sequence (P35348 1-466): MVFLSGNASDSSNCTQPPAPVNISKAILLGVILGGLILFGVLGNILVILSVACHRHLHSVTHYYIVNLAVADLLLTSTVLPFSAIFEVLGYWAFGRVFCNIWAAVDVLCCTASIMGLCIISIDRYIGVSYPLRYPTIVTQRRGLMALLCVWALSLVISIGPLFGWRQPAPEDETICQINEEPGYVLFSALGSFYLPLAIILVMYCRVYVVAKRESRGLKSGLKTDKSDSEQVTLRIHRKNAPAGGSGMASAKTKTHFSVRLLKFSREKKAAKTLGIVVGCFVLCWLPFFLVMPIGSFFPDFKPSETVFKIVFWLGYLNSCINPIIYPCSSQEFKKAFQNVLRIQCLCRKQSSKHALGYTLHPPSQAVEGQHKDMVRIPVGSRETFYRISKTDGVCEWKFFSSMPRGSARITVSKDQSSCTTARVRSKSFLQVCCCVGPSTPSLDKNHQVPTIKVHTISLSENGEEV
Briefly: Binding at human α1A adrenergic receptor. The conditions noted are these: Table 8; read-out: hα1A Ki. The text has this: α1 Human Adrenergic Receptors: To determine the binding of compounds to human α1 receptors, LM(tk−) cell lines stably transfected with the genes encoding the α1a, α1b, and α1d receptors were used. The nomenclature describing the α1 receptors was changed recently, such that the receptor formerly designated α1a is now designated α1d, and the receptor formerly designated α1c is now designated α1a. The cell lines expressing these receptors were deposited with the ATCC before the nomenclature change and reflect the subtype designations formerly assigned to these receptors. Thus, the cell line expressing the receptor described herein as the α1a receptor was deposited with the ATCC on Sep. […] The cell line expressing receptor described herein as the α1d receptor was deposited with the ATCC on Sep. […] The cell line expressing the α1b receptor is designated L-α1B, and was deposited on Sep.
(§1) The binding affinity (Ki) of these compounds were tested according to the protocols described herein at the following receptors; human α1A, α1B, α1D, α2A, α2B, and α2C adrenergic receptors; human Y1, Y2, Y4, and Y5 receptors; and N-Methyl-D-aspartic acid (NMDA) receptor channels. The binding interactions of these compounds were additionally tested at the norepinephrine (NE) transporter (NE uptake) and serotonin (5-hydroxytryptamine (5HT)) transporter (5HT uptake) according to protocols described herein

The target of test [2] is T2, human α2A adrenergic receptor (Homo sapiens, UniProt P08913).
T2 construct: host or cells: LM(tk-) cells, line L-α2A
T2 sequence (P08913 1-465): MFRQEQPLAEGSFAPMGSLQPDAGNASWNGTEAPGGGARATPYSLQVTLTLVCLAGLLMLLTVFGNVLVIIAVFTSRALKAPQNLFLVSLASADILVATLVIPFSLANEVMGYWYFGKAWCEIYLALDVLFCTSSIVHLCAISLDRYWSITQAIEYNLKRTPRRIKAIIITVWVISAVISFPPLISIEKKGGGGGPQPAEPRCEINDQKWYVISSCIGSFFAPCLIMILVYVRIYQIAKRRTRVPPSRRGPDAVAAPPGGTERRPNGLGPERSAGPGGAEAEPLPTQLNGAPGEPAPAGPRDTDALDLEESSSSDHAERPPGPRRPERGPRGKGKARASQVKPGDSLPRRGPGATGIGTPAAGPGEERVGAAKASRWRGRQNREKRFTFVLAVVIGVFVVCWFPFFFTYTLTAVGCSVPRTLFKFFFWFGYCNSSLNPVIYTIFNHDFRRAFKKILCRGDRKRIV
Nature of the test: Binding at human α2A adrenergic receptor. The conditions noted are these: Table 8; read-out: hα2A Ki.
Excerpt: α2 Human Adrenergic Receptors: To determine the binding of compounds to human α2 receptors, LM(tk−) cell lines stably transfected with the genes encoding the α2A, α2B, and α2C receptors were used. The cell line expressing the α2A receptor is designated L-α2A, and was deposited on Nov. 6, 1992, under ATCC Accession No. CRL 11180. The cell line expressing the α2B receptor is designated L-NGC-α2B, and was deposited on Oct. 25, 1989, under ATCC Accession No. CRL 10275. The cell line expressing the α2C receptor is designated L-α2C, and was deposited on Nov. 6, 1992, under ATCC Accession No. CRL-11181. Cell lysates were prepared as described herin, and suspended in 25 mM glycyiglycine buffer (pH 7.6 at room temperature). Equilibrium competition binding assay were performed using […] (0.5 nM), and nonspecific binding was determined by incubation with 10 μM phentolamine. The bound radioligand was separated by filtration through GF/B filters using a cell harvester.
as §1

Test [3] relates to distension induced contractions of the rat bladder. Briefly: Distension-induced rhythmic contraction (DIRC) model, micturition reflex in anesthetized rats. The test is classed as in vivo. The text has this: This model is widely considered to be predictive for the actions of drugs to treat human urge incontinence (also refered to as detrusor instability or unstable bladder). Examples of drugs that are active in this model which also are used therapeutically in humans include oxybutynin and baclofen (Morikawa et al, 1992); imipramine and nortriptyline (Pietra et al, 1990); and nifedipine and terodiline (Guarneri et al, 1993).
Female Sprague Dawley rats weighing approximately 300 g were anesthetized with subcutaneous urethane (1.2 g/kg). The trachea was cannulated with PE240 tubing to provide a clear airway throughout the experiment. A midline abdominal incision was made and the left and right ureters were isolated. The ureters were ligated distally (to prevent escape of fluids from the bladder) and cannulated proximally with PE10 tubing. The incision was closed using 4-0 silk sutures, leaving the PE10 lines routed to the exterior for the elimination of urine. The bladder was canulated via the transurethral route using PE50 tubing inserted 2.5 cm beyond the urethral opening. This cannula was secured to the tail using tape and connected to a pressure transducer. To prevent leakage from the bladder, the cannula was tied tightly to the exterior urethral opening using 4-0 silk.
To initiate the micturition reflex, the bladder was first emptied by applying pressure to the lower abdomen, and then filled with normal saline in 100 μl increments (maximum=2 ml) until spontaneous bladder contractions occurred (typically 20-40 mmHg at a rate of one contraction every 2 to 3 minutes. Once a regular rhythm was established, vehicle (saline) or test compounds were administered i.v. to examine their effects on bladder activity. The effect of a compound which inhibited the micturition reflex was expressed as its “disappearance time”, defined as the time between successive bladder contractions in the presence of the test compound minus the time between contractions before compound administration.

For orientation: Ki means the dissociation constant of the complex between target and ligand, obtained from inhibition or displacement. Consider `Cc1nc(NC(=N)N)nc2ccc3ccccc3c12` [Compound 1007A], for which the inhibition constant Ki in test [1] worked out at 3.27 µM.

With `Cc1cc(NC(=N)N)nc2ccc(Cl)cc12` [Compound 4005A, N-(6-chloro-4-methyl-2-quinolinyl)guanidine], the Ki in test [2] stood at 0.199 µM. In addition, the “inhibition of distention-induced contractions of the rat bladder” value in test [3] (1 mg/kg, i.v.) is reported as “complete inhibition”. In test [3] (i.v. administration, anesthetized rat (figure legends)), the “time for which inhibition of bladder activity persisted” value stood at 35 min.

The values are drawn from patent US20030176314A1, “Compounds for the treatment of pain” (priority 2001, published 2003).
